Laboratory results: patent publication US20190274978A1, “ANTIBACTERIAL COMPOSITIONS” (priority 2016, published 2019)
“Also recorded” adds a separate entry of the source.

Assays:
[1] = test system: M. tuberculosis; conditions: de Carvalho et al. (2011); cited from earlier work
[2] = test system: MRSA; conditions: Rajamuthiah et al. (2014, 2015); cited from earlier work
[3] = test system: Pseudomonas aeruginosa; conditions: Rajamuthiah et al. (2015), compound alone; cited from earlier work
[4] = test system: Acinetobacter baumannii; conditions: Rajamuthiah et al. (2015), compound alone; cited from earlier work
[5] = test system: Enterococcus faecium; conditions: Rajamuthiah et al. (2015); cited from earlier work
[6] = test system: Enterobacter aerogenes; conditions: Rajamuthiah et al. (2015), compound alone; cited from earlier work
[7] = test system: Klebsiella pneumoniae; conditions: Rajamuthiah et al. (2015), compound alone; cited from earlier work
[8] = test system: Gram negative bacteria; conditions: in combination with an efflux pump inhibitor (e.g. TolC efflux pump inhibitor); PCT/NZ2015/050192; cited from earlier work
[9] = test system: Enterobacter cloacae; test: Antibiotic combination growth assay (384-well checkerboard, OD600); conditions: in conjunction with a polymyxin (polymyxin B or polymyxin E (colistin)); subsp. cloacae ATCC 13047; FIGS. 29-32
[10] = test system: P. aeruginosa; conditions: Imperi et al. (2013), FIG. 2A there; cited from earlier work
[11] = test system: macrophages; conditions: cited from earlier work
[12] = test system: quorum sensing system in Pseudomonas aeruginosa; conditions: among FDA-approved drugs tested, Imperi et al. (2013); cited from earlier work
[13] = test system: Escherichia coli; test: Antibiotic combination growth assay (384-well checkerboard, OD600)
[14] = test system: Acinetobacter baumannii; test: as above; conditions: in conjunction with a polymyxin (polymyxin B or polymyxin E (colistin)); ATCC type strain 19606; FIGS. 37-40
[15] = test system: Salmonella enterica; test: as above; type: cell-based; conditions: in conjunction with a polymyxin (polymyxin B or polymyxin E (colistin)); Serovar Typhimurium (SL1344); FIGS. 33-36
[16] = test system: E. coli strain 7KO:roGFP; test: Real-time measurement of intrabacterial redox potential (roGFP)
Experimental: (§1) Cells were fixed with N-ethylmaleimide at various time points post niclosamide incubation, and then passed through a flow cytometry system. The ImageStream recorded each individual cell and all images were processed automatically.
In vivo analysis of the intrabacterial redox potential was performed at 30° C. in a Synergy H1 Multimode plate reader (BioTek) with excitation measured at 405 and 480 nm and emission measured at 510 nm. Log phase bacterial cultures of 7KO:roGFP or 7KOΔtolC:roGFP were resuspended in 0.9% saline at OD 1.0, and 100 μL aliquots were loaded in individual wells of a black, clear-bottom 96-well plate. Background signals from the non-fluorescent (i.e., without pRSETB-RoGFP2) corresponding strain were obtained in the same experiment. Fluorescence signals were followed for 160-180 min, and the resulting 405/480 ratio signals were calculated. […] Reduced and oxidized controls were obtained within each experiment using a final concentration of 10 mM H2O2 or 1 mM DTT respectively.
Samples were analyzed by the AMNIS ImageStream as previously described (van der Heijden et al. (2015) Proc Natl Acad Sci USA 112, 560-565). The laser intensities for 405, 488, 658, and 785 nm were 100, 120, 20, and 3.8, respectively. The data files were further analyzed using IDEAS software, version 6.0.129.0, which is supplied by AMNIS. Bacterial cells were selected based on fluorescence at 660 nm. Every image of an infected cell was then selected by the program based on fluorescent intensity at 660 nm. Based on this selection, a mask was created that was used for analysis of the 405/480 nm ratio. The resulting 405/480 ratio signals were plotted in a histogram. Reduced and oxidized controls were obtained within each experiment, and all values were normalized to oxidized and reduced ratio values.
In vivo analysis of the intrabacterial redox potential was done at 30° C. in a Synergy H1 Multimode plate reader (BioTek) with excitation at 405 and 480 nm while emission was measured at 510 nm. Log phase bacterial cultures were resuspended in 0.9% saline at OD 1.0, and 200 μL per well were loaded in a black, clear-bottom 96-well plate. Background signals from the nonfluorescent corresponding strain were obtained in the same experiment.

[17] = test system: Pseudomonas aeruginosa; test: Antibiotic combination growth assay (384-well checkerboard, OD600)
[18] = test system: methicillin-resistant Staphylococcus aureus (MRSA); conditions: Lau et al. (2015), under the assay conditions used; cited from earlier work
[19] = test system: Mycobacterium tuberculosis; conditions: cited from earlier work
[20] = test system: E. coli strain 7KOΔtolC:roGFP; test: Real-time measurement of intrabacterial redox potential (roGFP); conditions: niclosamide alone in strain with in-frame deletion of tolC; FIG. 59
Experimental: as §1
In vivo analysis of the intrabacterial redox potential was performed at 30° C. in a Synergy H1 Multimode plate reader (BioTek) with excitation measured at 405 and 480 nm and emission measured at 510 nm. Log phase bacterial cultures of 7KO:roGFP or 7KOΔtolC:roGFP were resuspended in 0.9% saline at OD 1.0, and 100 μL aliquots were loaded in individual wells of a black, clear-bottom 96-well plate. Background signals from the non-fluorescent (i.e., without pRSETB-RoGFP2) corresponding strain were obtained in the same experiment. Fluorescence signals were followed for 160-180 min, and the resulting 405/480 ratio signals were calculated. […]
Samples were analyzed by the AMNIS ImageStream as previously described (van der Heijden et al. (2015) Proc Natl Acad Sci USA 112, 560-565). […] The data files were further analyzed using IDEAS software, version 6.0.129.0, which is supplied by AMNIS. Bacterial cells were selected based on fluorescence at 660 nm. […]
In vivo analysis of the intrabacterial redox potential was done at 30° C. in a Synergy H1 Multimode plate reader (BioTek) with excitation at 405 and 480 nm while emission was measured at 510 nm. […]

[21] = test system: Klebsiella pneumoniae; test: Antibiotic combination growth assay (384-well checkerboard, OD600); conditions: in conjunction with a polymyxin (polymyxin B or polymyxin E (colistin)); antibiotic-resistant and laboratory strains; FIGS. 21-28

CC(=O)Oc1ccccc1C(=O)Nc1ncc([N+](=O)[O-])s1 [nitazoxanide, 2-acetyloxy-N-(5-nitro 2-thiazolyl)benzamide]
uncoupling of the membrane potential [1]: uncoupled the membrane potential

Cc1cc(C(C#N)c2ccc(Cl)cc2)c(Cl)cc1NC(=O)c1cc(I)cc(I)c1O (stereo not drawn) [closantel, N-[5-Chloro-4-[(4-chlorophenyl)-cyanomethyl]-2-methylphenyl]-2-hydroxy-3,5-diiodobenzamide]
toxicity / activity against MRSA [2]: active

O=C(Nc1cc(Cl)cc(Cl)c1O)c1c(O)c(Cl)cc(Cl)c1Cl [oxyclozanide, 2,3,5-trichloro-N-(3,5-dichloro-2-hydroxyphenyl)-6-hydroxybenzamide]
inhibition of growth [3]: neither niclosamide nor oxyclozanide were active | inhibition of growth [4]: neither niclosamide nor oxyclozanide were active | toxicity to Enterococcus faecium [5]: directly toxic | inhibition of growth [6]: neither niclosamide nor oxyclozanide were active | inhibition of growth [7]: neither niclosamide nor oxyclozanide were active | toxicity / activity against MRSA [2]: directly toxic

O=C(Nc1ccc([N+](=O)[O-])cc1Cl)c1cc(Cl)ccc1O [niclosamide, N-(2′-chloro-4′-nitrophenyl)-5-chlorosalicylamide]
inhibition of growth [3]: neither niclosamide nor oxyclozanide were active | uncoupling of the membrane potential [1]: uncoupled the membrane potential | inhibition of growth [4]: neither niclosamide nor oxyclozanide were active | direct toxicity to Gram negative bacteria [8]: directly toxic | growth inhibition effect of the combination [9]: synergistic growth inhibition effect | toxicity to Enterococcus faecium [5]: directly toxic | inhibition of growth [10]: failed to inhibit the growth | toxicity against macrophages [11]: did observe toxicity | inhibition of growth [6]: neither niclosamide nor oxyclozanide were active | anti-quorum sensing activity [12]: highest anti-quorum sensing activity | growth inhibition effect of the combination ([13]; in conjunction with a polymyxin (polymyxin B or polymyxin E (colistin)), antibiotic-resistant and laboratory strains, FIGS. 1-12): synergistic growth inhibition effect | inhibition of growth [7]: neither niclosamide nor oxyclozanide were active | growth inhibition effect of the combination [14]: synergistic growth inhibition effect | growth inhibition effect of the combination [15]: synergistic growth inhibition effect | intracellular redox stress (405/480 nm ratio) ([16]; 1 μM niclosamide in combination with 0.5 μM colistin, FIG. 60 C): irreversible increase in intracellular redox stress | intracellular redox stress (405/480 nm ratio) ([16]; 1 μM niclosamide in combination with 0.5 μM polymyxin B, FIG. 60 D): irreversible increase in intracellular redox stress | intracellular redox stress (405/480 nm ratio) ([16]; 1 μM niclosamide in combination with 25 μM PAβN (TolC efflux pump inhibitor), FIG. 60 B): irreversible increase in intracellular redox stress | intracellular redox stress (405/480 nm ratio) ([16]; niclosamide alone, FIG. 59): did not experience significant redox stress | growth inhibition effect of the combination ([17]; in conjunction with a polymyxin (polymyxin B or polymyxin E (colistin)), antibiotic-resistant and laboratory strains, FIGS. 13-20): synergistic growth inhibition effect | toxicity / activity against MRSA [2]: directly toxic | minimum inhibitory concentration [18]: sub-micromolar | MIC ([19]; Sun and Zhang (1999)): 0.5 to 1.0 µg/mL | activity against non-replicating M. tuberculosis ([19]; grown in low oxygen conditions): active | intracellular redox stress (405/480 nm ratio) [20]: experienced increasing redox stress; also recorded: irreversible increase in intracellular redox stress | growth inhibition effect of the combination [21]: synergistic growth inhibition effect

O=[N+]([O-])c1ccc(O)c([N+](=O)[O-])c1 [2,4-dinitrophenol]
synergistic effect in combination with colistin ([13]; with colistin, E. coli MG1655, FIGS. 45, 46, 53-58): only weak synergistic effect

Gramicidin
growth inhibition effect of the combination ([13]; gramicidin with niclosamide, E. coli laboratory strain W3110, FIGS. 41-42): synergistic growth inhibition effect | growth inhibition effect of the combination ([17]; gramicidin with niclosamide, antibiotic-resistant clinical isolate (NZ isolate AR 00/537), FIGS. 43-44): synergistic growth inhibition effect
